Reference: US20260098013A1, “Stereoisomer Conjugates of Dextrorphan” (priority 2024, published 2026)

Settings: rat, in vivo; for AUC0-6 h / Cmax / Tmax: 6 mg/kg

Compound	Exposure Ratio AUC (Sprague-Dawley, po) [%]	Exposure Ratio Cmax (Sprague-Dawley, po) [%]	AUC0-6 h (Sprague-Dawley, po) [ng·h/mL]	Cmax (Sprague-Dawley, po) [ng/mL]	Tmax (Sprague-Dawley, po) [h]	AUC compared to dextrorphan tartrate (po)	Cmax compared to dextrorphan tartrate (po)	oral dextrorphan bioavailability / exposure compared to dextrorphan tartrate (po)	fold increase in AUC0-6h compared to dextrorphan tartrate (Sprague-Dawley, po)	fold increase in Cmax compared to dextrorphan tartrate (Sprague-Dawley, po) [fold]	oral bioavailability compared to the other diastereomer of the same prodrug (po)	dextrorphan AUC0-6h, times higher compared to dextrorphan tartrate (po)	dextrorphan Cmax, times higher compared to dextrorphan tartrate (po)	steadiness of plasma concentration	time to reach maximum plasma concentration after administration (Sprague-Dawley, po)
C[C@@H](N)C(=O)N[C@H](C)C(=O)Oc1ccc2c(c1)[C@]13CCCC[C@@H]1C(C2)N(C)CC3 [3-(D-Ala-D-Ala)-dextrorphan]	59	43	24.7	9.6	2.1	lower	smaller	lower							
CC(C)[C@@H](NC(=O)[C@@H](C)N)C(=O)Oc1ccc2c(c1)[C@]13CCCC[C@@H]1C(C2)N(C)CC3 [3-(D-Ala-D-Val)-dextrorphan]						larger	larger	superior							
CC(C)[C@H](NC(=O)[C@H](N)C(C)C)C(=O)Oc1ccc2c(c1)[C@]13CCCC[C@@H]1C(C2)N(C)CC3 [3-(D-Val-D-Val)-dextrorphan]						larger	larger		about 4.5 fold	~2.7	significantly increased				
C[C@H](N)C(=O)N[C@@H](C)C(=O)Oc1ccc2c(c1)[C@]13CCCC[C@@H]1C(C2)N(C)CC3 [3-(L-Ala-L-Ala)-dextrorphan]	147	217	88.3	87.3	0.8	larger	larger					about 1.5 times	over 2 times		
CC(C)[C@H](N)C(=O)N[C@H](C(=O)Oc1ccc2c(c1)[C@]13CCCC[C@@H]1C(C2)N(C)CC3)C(C)C [3-(L-Val-L-Val)-dextrorphan]	85	128	78.5	98.9	0.5	slightly lower		good oral bioavailability							
CC(=O)N[C@H](C)C(=O)Oc1ccc2c(c1)[C@]13CCCC[C@@H]1C(C2)N(C)CC3 [3-(N-Ac-D-Ala)-dextrorphan]		32	30.8	16.5	1.6	much smaller	much smaller							steadier	
CC(=O)N[C@H](CCC(=O)O)C(=O)Oc1ccc2c(c1)[C@]13CCCC[C@@H]1C(C2)N(C)CC3 [3-(N-Ac-D-Glu)-dextrorphan]	30	10	12.7	3.5	2.4	much smaller	much smaller							steadier	around 2 hours
CC[C@@H](C)[C@@H](NC(C)=O)C(=O)Oc1ccc2c(c1)[C@]13CCCC[C@@H]1C(C2)N(C)CC3 [3-(N-Ac-D-Ile)-dextrorphan]	880	672	294.6	81.9	2.9	much smaller	much smaller					> 8 times	over 6 times		
CC(=O)N[C@H](Cc1ccccc1)C(=O)Oc1ccc2c(c1)[C@]13CCCC[C@@H]1[C@H](C2)N(C)CC3 [3-(N-Ac-D-Phe)-dextrorphan]	30	11	19.1	4.7	5.0	much smaller	much smaller							much steadier	
CC(=O)N[C@@H](C(=O)Oc1ccc2c(c1)[C@]13CCCC[C@@H]1C(C2)N(C)CC3)C(C)C [3-(N-Ac-D-Val)-dextrorphan]	556	180	467.4	127.7	3.0	higher	higher					more than 5 times	about 1.8 times		
CC(=O)N[C@@H](C)C(=O)Oc1ccc2c(c1)[C@]13CCCC[C@@H]1C(C2)N(C)CC3 [3-(N-Ac-L-Ala)-dextrorphan]	40	35	29.6	18.2	0.7	much smaller	much smaller	decreasing bioavailability						steadier	
CC(=O)N[C@@H](CCC(=O)O)C(=O)Oc1ccc2c(c1)[C@]13CCCC[C@@H]1C(C2)N(C)CC3 [3-(N-Ac-L-Glu)-dextrorphan]	43	14	18.4	4.8	1.8	much smaller	much smaller							steadier	around 2 hours
CC[C@H](C)[C@H](NC(C)=O)C(=O)Oc1ccc2c(c1)[C@]13CCCC[C@@H]1C(C2)N(C)CC3 [3-(N-Ac-L-Ile)-dextrorphan]			27.4	13.9	2.2										
CC(=O)N[C@@H](Cc1ccccc1)C(=O)Oc1ccc2c(c1)[C@]13CCCC[C@@H]1[C@H](C2)N(C)CC3 [3-(N-Ac-L-Phe)-dextrorphan]	44	18	27.7	8.0	2.8	much smaller	much smaller							much steadier	
CC(=O)N[C@H](C(=O)Oc1ccc2c(c1)[C@]13CCCC[C@@H]1C(C2)N(C)CC3)C(C)C [3-(N-Ac-L-Val)-dextrorphan]	37		31.2	12.6	2.8		lower								
CN1CC[C@]23CCCC[C@H]2[C@H]1Cc1ccc(O)cc13 [Dextrorphan, (+)-17-methylmorphinan-3-ol]															approximately 30 minutes
